Measurements: ChEMBL document CHEMBL1201862, “PubChem BioAssay data set” (2004)
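Dose response: 5 concentrations. Exposure: 48 h. Format: 96-well plates. Endpoint: linear interpolation; highest concentration if not reached. GI50 is the concentration that inhibits growth by half.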 Activity calls are given as the source filed them. Cut-off read from the data, not from the text of the source: active = GI50 up to about 1.1 µM and inactive = higher.

How the values were obtained:
Assay in all cases: NCI tumour cell line growth inhibition, 48 h
UACC-62 = system: UACC-62
KM12 = system: KM12
SF-268 = system: SF-268
LXFL 529 = system: LXFL 529
UACC-257 = system: UACC-257
HOP-92 = system: HOP-92
MOLT-4 = system: MOLT-4
TK-10 = system: TK-10
DMS-114 = system: DMS-114
SK-OV-3 = system: SK-OV-3
K562 = system: K562
HCC 2998 = system: HCC 2998
HL-60 = system: HL-60
CAKI-1 = system: CAKI-1
SNB-75 = system: SNB-75
Malme-3M = system: Malme-3M
HOP-62 = system: HOP-62
RXF 631 = system: RXF 631
HCT-116 = system: HCT-116
OVCAR-3 = system: OVCAR-3
SNB-78 = system: SNB-78
OVCAR-8 = system: OVCAR-8
HT-29 = system: HT-29
NCI-H522 = system: NCI-H522
SN12C = system: SN12C
SF-539 = system: SF-539
SK-MEL-28 = system: SK-MEL-28
A498 = system: A498
786-0 = system: 786-0
XF498 = system: XF498
EKVX = system: EKVX
OVCAR-4 = system: OVCAR-4
A549 = system: A549
DMS-273 = system: DMS-273
SNB-19 = system: SNB-19
SW-620 = system: SW-620
CCRF-CEM = system: CCRF-CEM
IGROV-1 = system: IGROV-1
NCI-H23 = system: NCI-H23
SF-295 = system: SF-295
M14 = system: M14
NCI-H226 = system: NCI-H226
RPMI-8226 = system: RPMI-8226
DLD-1 = system: DLD-1
COLO 205 = system: COLO 205
UO-31 = system: UO-31
SR = system: SR
SK-MEL-2 = system: SK-MEL-2
HCT-15 = system: HCT-15
NCI-H460 = system: NCI-H460
HOP-18 = system: HOP-18
U-251 = system: U-251
ACHN = system: ACHN
M19-MEL = system: M19-MEL

## N#CCCN(c1ccc(/C=N/c2cccc([N+](=O)[O-])c2)cc1)S(=O)(=O)c1ccccc1
UACC-62
  GI50: > 100 µM (inactive)
KM12
  GI50: > 100 µM (inactive)
SF-268
  GI50: > 100 µM (inactive)
LXFL 529
  GI50: > 100 µM (inactive)
UACC-257
  GI50: > 100 µM (inactive)
HOP-92
  GI50: > 100 µM (inactive)
MOLT-4
  GI50: > 100 µM (inactive)
TK-10
  GI50: > 100 µM (inactive)
DMS-114
  GI50: > 100 µM (inactive)
SK-OV-3
  GI50: > 100 µM (inactive)
K562
  GI50: > 100 µM (inactive)
HCC 2998
  GI50: > 100 µM (inactive)
HL-60
  GI50: > 100 µM (inactive)
CAKI-1
  GI50: > 100 µM (inactive)
SNB-75
  GI50: 75.2 µM (inactive)
Malme-3M
  GI50: > 100 µM (inactive)
HOP-62
  GI50: > 100 µM (inactive)
RXF 631
  GI50: > 100 µM (inactive)
HCT-116
  GI50: > 100 µM (inactive)
OVCAR-3
  GI50: > 100 µM (inactive)
SNB-78
  GI50: > 100 µM (inactive)
OVCAR-8
  GI50: > 100 µM (inactive)
HT-29
  GI50: > 100 µM (inactive)
NCI-H522
  GI50: > 100 µM (inactive)
SN12C
  GI50: > 100 µM (inactive)
SF-539
  GI50: > 100 µM (inactive)
SK-MEL-28
  GI50: > 100 µM (inactive)
A498
  GI50: > 10 µM (inactive)
786-0
  GI50: > 100 µM (inactive)
XF498
  GI50: > 100 µM (inactive)
EKVX
  GI50: > 100 µM (inactive)
OVCAR-4
  GI50: > 100 µM (inactive)
A549
  GI50: > 100 µM (inactive)
DMS-273
  GI50: > 100 µM (inactive)
SNB-19
  GI50: > 100 µM (inactive)
SW-620
  GI50: > 100 µM (inactive)
CCRF-CEM
  GI50: > 100 µM (inactive)
IGROV-1
  GI50: > 100 µM (inactive)
NCI-H23
  GI50: > 100 µM (inactive)
SF-295
  GI50: > 100 µM (inactive)
M14
  GI50: > 100 µM (inactive)
NCI-H226
  GI50: 56.9 µM (inactive)
RPMI-8226
  GI50: > 100 µM (inactive)
DLD-1
  GI50: > 100 µM (inactive)
COLO 205
  GI50: > 100 µM (inactive)
UO-31
  GI50: 36.3 µM (inactive)
SR
  GI50: > 100 µM (inactive)
SK-MEL-2
  GI50: > 100 µM (inactive)

## COc1ccc(C2=NN(C(C)=O)c3nc4ccccc4nc3O2)cc1
UACC-62
  GI50: 61.4 µM (inactive)
KM12
  GI50: > 100 µM (inactive)
SF-268
  GI50: 31.3 µM (inactive)
LXFL 529
  GI50: 31.4 µM (inactive)
UACC-257
  GI50: 50.8 µM (inactive)
HOP-92
  GI50: 16.4 µM (inactive)
MOLT-4
  GI50: > 100 µM (inactive)
TK-10
  GI50: 21.3 µM (inactive)
DMS-114
  GI50: 42.2 µM (inactive)
K562
  GI50: > 100 µM (inactive)
HCC 2998
  GI50: > 100 µM (inactive)
HL-60
  GI50: > 100 µM (inactive)
SNB-75
  GI50: 6.28 µM (inactive)
HCT-15
  GI50: 46.6 µM
NCI-H460
  GI50: 32.1 µM (inactive)
Malme-3M
  GI50: 70.6 µM (inactive)
HOP-62
  GI50: 23.1 µM (inactive)
HOP-18
  GI50: 17.7 µM (inactive)
RXF 631
  GI50: 23 µM (inactive)
HCT-116
  GI50: 53.3 µM (inactive)
OVCAR-3
  GI50: > 100 µM (inactive)
OVCAR-8
  GI50: 37.3 µM (inactive)
HT-29
  GI50: > 100 µM (inactive)
NCI-H522
  GI50: 20.8 µM (inactive)
SN12C
  GI50: > 100 µM (inactive)
SF-539
  GI50: 17.8 µM (inactive)
SK-MEL-28
  GI50: 92.3 µM (inactive)
U-251
  GI50: 18.9 µM (inactive)
ACHN
  GI50: 24.4 µM (inactive)
M19-MEL
  GI50: 89.7 µM (inactive)
786-0
  GI50: 15.2 µM (inactive)
XF498
  GI50: 19.1 µM (inactive)
EKVX
  GI50: 45.6 µM (inactive)
OVCAR-4
  GI50: 11 µM (inactive)
A549
  GI50: 40.6 µM (inactive)
DMS-273
  GI50: 42.1 µM (inactive)
SNB-19
  GI50: 27 µM (inactive)
SW-620
  GI50: > 100 µM (inactive)
CCRF-CEM
  GI50: > 100 µM (inactive)
IGROV-1
  GI50: 3.33 µM (inactive)
NCI-H23
  GI50: 55.2 µM (inactive)
SF-295
  GI50: 26.1 µM (inactive)
RPMI-8226
  GI50: > 100 µM (inactive)
DLD-1
  GI50: 25.4 µM (inactive)
COLO 205
  GI50: > 100 µM (inactive)
UO-31
  GI50: 46.9 µM (inactive)
SR
  GI50: > 100 µM (inactive)
SK-MEL-2
  GI50: 8.02 µM (inactive)
